Laboratory results: article PMC5120204, “Identification of an orally active small-molecule PTHR1 agonist for the treatment of hypoparathyroidism” (Nature Communications, 2016)

Assays:
hPTHR2 = biological target: T1, hPTHR2 (Homo sapiens, UniProt P49190); assay: cAMP production assay in COS-7 cells expressing hPTHR2; type: cell-based; details: COS-7 cells expressing human PTHR2
T1 construct: expressed in transfected cells; host or cells: COS-7 (transient)
Experimental: COS-7 cells (ATCC) were seeded into a 96-well flat-bottomed plate (1.4 × 10^4 cells per 100 μl per well) and incubated overnight. The next day, the COS-7 cells were transfected by adding 10 μl of a mixture of hPTHR1, hPTHR2 or mutant hPTHR1 plasmid, rat PTHR1 or rat PTHR2 plasmid, or empty vector (0.1 μg per well), FuGENE HD Transfection Reagent (0.4 μl per well, Promega), and Opti-MEM I Reduced Serum Medium (10 μl per well, Life Technologies) to each well. […] The plate was placed in a 37 °C constant-temperature water bath for 20 min to allow the reaction to proceed. After incubation, the liquid in the wells was discarded, the wells were washed with the assay medium (100 μl per well), and the plate was frozen on dry ice. Next, 40 μl of 50 mmol l^−1 HCl was added to each well, and the plate was stored in a freezer set at ≤−20 °C. The cAMP concentrations were measured by using a cAMP EIA kit (GE Healthcare). EC50 values were determined from three independent experiments in duplicate by a non-linear regression Emax model (JMP ver.9.0.2, SAS Institute). The geometric mean of the EC50 values obtained in three experiments in duplicate was calculated using Microsoft Office Excel 2007. […]

fetal rat long bones = assay: Fetal rat long bone cultures, 45Ca release; type: cell-based; details: organ culture
Experimental: Bone-resorbing activity was assessed by fetal rat long bone cultures. ^45CaCl2 (1,480 kBq, PerkinElmer) was subcutaneously injected into a pregnant Crl:CD(SD) rat (Charles River Laboratories) on its 18th day of gestation. At 48 h after the injection, the pregnant rat was euthanized, and the ulnae and radial bones were isolated from euthanized fetal rats. The long bones were placed on nylon mesh and covered with paraffin paper, and a floating culture in BGJb medium (Life Technologies) containing antibiotic–antimycotic (× 1, Life Technologies) was carried out for 3 days at 37 °C in 95% air and 5% CO2 atmosphere. On the 4th day, the medium was replaced with fresh BGJb medium containing hPTH(1–34) (1 nmol l^−1 to 1 μmol l^−1) or PCO371 (0.1 nmol l^−1 to 3 μmol l^−1) or vehicle (0.1% DMSO and 0.1 mmol l^−1 acetic acid at final concentration) and cultured for a further 4 days at 37 °C. Bone samples were then treated with 10% TCA (500 μl/bone) overnight at 37 °C. Radioactivity of the bone and the medium samples was measured. Four to five long bones were used for each individual dose. ^45Ca release (%) was calculated by the following formula (equation (4)): […]

TPTX rats = assay: Repeated administration study in TPTX rats, study 1; type: in vivo, rat
Experimental: TPTX was carried out in 6-week-old female Crl:CD (SD) rats (Charles River Laboratories). Rats with serum Ca levels of <8.0 mg dl^−1 at 5 days after surgery were used in the following experiments. The rats were divided into four groups both in study 1 and 2, each with a similar mean value of serum Ca levels and body weight. Sample sizes were determined as described in the above single administration study. To evaluate the calcemic effects of PCO371 and hPTHs, we defined a target therapeutic range for serum Ca of 7.6–11.2 mg dl^−1, which corresponds to the low normal to normal range of serum Ca levels.
TPTX rats were treated twice daily (at around 09:00 and 19:00 hours) orally (vehicle or PCO371 at 1, 3 or 9 mg kg^−1) or subcutaneously [hPTH(1–34) or vehicle at 9 nmol kg^−1] for 4 weeks. Four rats were assigned to sham control, and treated with vehicle for PCO371. Vehicles for PCO371 and hPTH(1–34) were the same as in the OVX rat study. Under isoflurane anaesthesia, jugular vein blood was collected immediately before and at 6 and 10 h (for PCO371) or at 1 and 10 h (for hPTH) after administrations to measure the serum Ca levels on days 1 (the first dosing day), 7, 14, 22 and 29. Urine was collected for 24 h by using metabolic cages on days 29–30, and Ca excretion was calculated from urine volume and Ca level. Under isoflurane anaesthesia, jugular vein blood was collected 10 h after administrations to measure serum 1,25(OH)2D3 levels on Day 29 by using a 1,25(OH)2D3 RIA kit (Fujirebio). Four or five TPTX rats were assigned to each dose group. Serum and urine Ca levels were measured in the same way as in the single-dosing study. In another experiment, TPTX rats were treated subcutaneously once daily with hPTH(1–84) at 9 nmol kg^−1, for 4 weeks. Serum Ca was measured immediately before and at 2, 6 and 10 h after administration on day 1 (the first dosing day), 7, 14, 21 and 28 using the same method as described above. Urine was collected for 24 h by using metabolic cages on days 28 and 29, and Ca excretion was calculated from urine volume and Ca level.

normal dogs = assay: Single administration study in normal dogs; type: in vivo, dog; details: single oral administrations 3.0−30 mg kg^−1
Experimental: Marshall Beagle dogs (20 months old, male, Marshall BioResources Japan Inc) were treated once orally (vehicle or PCO371 at 3, 10 or 30 mg kg^−1). Six dogs were assigned to each group. Vehicle for PCO371 was the same as in the rat studies. The sample size was determined based on previous experiments with hPTHs in our laboratories (n=6). Blood was collected from the cephalic vein immediately before and at 1, 2, 4, 6, 8, 10 and 24 h after administration to measure serum Ca levels (o-CPC method, Wako Pure Chemical Industries).

[1] = Pharmacokinetics in normal rats; details: for half-life / AUC(0-inf) / Cmax / Tmax: female, RccHan:WIST, rat, plasma, po
Experimental: PCO371 was administered at a dose of 2, 6 or 18 mg kg^−1 orally to 7-week-old normal female rats (RccHan: WIST, JLA; three rats for each dose group), or at a dose of 2, 6 or 18 mg kg^−1 orally to 7-week-old female TPTX rats [Crl:CD(SD), Charles River Laboratories; three TPTX rats for each dose group] or at 30 mg kg^−1 orally or 3, 10 mg kg^−1 intravenously to 55-week-old OVX rats as described above. Blood samples were collected at 15 and 30 min, and 1, 2, 4, 8 and 24 h after administration. […] The concentrations of plasma PCO371 were determined by liquid chromatography–tandem mass spectrometry [LC-MS/MS (API-3200 (AB SCIEX), detection limit: 1 ng ml^−1).

T1 sequence (P49190 25-550): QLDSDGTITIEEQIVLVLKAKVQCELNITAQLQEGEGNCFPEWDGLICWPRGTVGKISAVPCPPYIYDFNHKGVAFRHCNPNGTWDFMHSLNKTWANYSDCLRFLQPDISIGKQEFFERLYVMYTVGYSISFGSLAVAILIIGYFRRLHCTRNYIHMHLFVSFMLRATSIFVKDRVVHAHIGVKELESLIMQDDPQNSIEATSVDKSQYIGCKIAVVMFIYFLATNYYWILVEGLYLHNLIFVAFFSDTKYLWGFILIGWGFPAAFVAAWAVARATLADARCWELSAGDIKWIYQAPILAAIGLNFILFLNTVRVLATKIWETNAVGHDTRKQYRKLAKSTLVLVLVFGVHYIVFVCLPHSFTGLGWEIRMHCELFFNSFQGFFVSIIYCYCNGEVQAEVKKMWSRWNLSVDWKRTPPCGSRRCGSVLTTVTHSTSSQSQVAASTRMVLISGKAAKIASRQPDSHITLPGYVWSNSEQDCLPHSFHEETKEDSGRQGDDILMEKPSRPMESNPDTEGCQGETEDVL

Cc1cc(N2C(=O)NC(=O)C2(C)C)cc(C)c1CCS(=O)(=O)N1CCC2(CC1)N=C(c1ccc(OC(F)(F)F)cc1)NC2=O [PCO371, 1-{3,5-dimethyl-4-[2-({4-oxo-2-[4-(trifluoromethoxy)phenyl]-1,3,8-triazaspiro[4.5]dec-1-en-8-yl}sulfonyl)ethyl]phenyl}-5,5-dimethylimidazolidine-2,4-dione]
cAMP production (hPTHR2): did not stimulate cAMP production
concentration able to stimulate 45Ca release from prelabeled bones (fetal rat long bones): ≥ 1 µmol/L
Serum 1,25(OH)2D3 levels (TPTX rats; 9 mg kg^−1 twice-daily oral, 4 weeks): increased significantly
urinary Ca excretion (TPTX rats; after 4-week treatment, up to 9 mg kg^−1 twice-daily oral): not increased
hypercalcemia (>11.2 mg dl^−1) (TPTX rats; at 0, 6 and 10 h after administrations on days 1, 7, 14, 22 and 29): no hypercalcemia
time serum Ca maintained within the target range after each administration (TPTX rats; twice-daily oral 3 mg kg^−1 or more, 4 weeks): at least 6 h
body weight or general condition vs vehicle-treated rats (TPTX rats; twice-daily oral, 4 weeks): no significant difference
dose that increased serum Ca to within the target therapeutic range (TPTX rats; twice-daily oral, 4 weeks, range 7.6–11.2 mg dl^−1): ≥ 3 mg/kg
serum Ca (normal dogs): significantly increased
half-life [1]: 1.5 to 1.7 h
AUC(0-inf) ([1]; 2 mg/kg): 374 ± 187 ng·h/mL
Cmax ([1]; 2 mg/kg): 92.5 ± 37.1 ng/mL
Tmax ([1]; 2 mg/kg): 1.5 ± 0.9 h
half-life ([1]; 2 mg/kg): 1.5 ± 0.1 h
AUC(0-inf) ([1]; 6 mg/kg): 2360 ng·h/mL
Cmax ([1]; 6 mg/kg): 727 ± 103 ng/mL
Tmax ([1]; 6 mg/kg): 1 h
half-life ([1]; 6 mg/kg): 1.4 ± 0.2 h
AUC(0-inf) ([1]; 18 mg/kg): 18600 ng·h/mL
Cmax ([1]; 18 mg/kg): 4560 ng/mL
Tmax ([1]; 18 mg/kg): 1.3 ± 0.6 h
half-life ([1]; 18 mg/kg): 1.7 ± 0.3 h
BA (oral bioavailability) ([1]; normal rats, p.o. 2 mg kg^−1): 34%
time at which Cmax was attained ([1]; normal rats, single oral dose, dose range tested): 1 to 1.5 h
